Source: ChEMBL document CHEMBL5614430, “Discovery, synthesis and SAR of 2-acyl-1-biarylmethyl pyrazolidines, dual orexin receptor antagonists designed as fast and short-acting sleeping drugs” (Bioorg Med Chem, 2024)

What was measured:
in vivo [1] = conditions: Beagle, dog, po, 10 mg/kg
in vivo [2] = conditions: Beagle, dog, po, 10 mg/kg; remark: listed apart in the source
in vivo [3] = conditions: Beagle, dog, po, 10 mg/kg; remark: listed apart in the source
in vivo [4] = conditions: Beagle, dog, po, 10 mg/kg; remark: listed apart in the source
in vivo [5] = conditions: Beagle, dog, iv, 1 mg/kg
in vivo [6] = conditions: Beagle, dog, iv, 1 mg/kg; remark: listed apart in the source
in vitro = conditions: dog, MDCK-MDR1, Papp
physchem = conditions: buffer, pH 7.4

| Papp A→B (in vitro) | logD (physchem) | Structure (SMILES) | other results |
| --- | --- | --- | --- |
|  |  | Cc1ccc(-n2nccn2)c(C(=O)N2CCCN2Cc2ccn(-c3ccccc3)n2)c1 | Cmax (in vivo [1]): 0.287 µg/mL; AUC (in vivo [2]): 1.04 µg·h/mL; Tmax (in vivo [3]): 3.55 h; bioavailability (in vivo [4]): 10%; clearance (in vivo [5]): 1.02 L/h/kg; Vd (in vivo [6]): 0.8 L/kg |
| 93 nm/s | 3.3 | Cn1ccc(C(=O)N2C[C@@H]3CCc4cc(F)ccc4[C@@H]3N2Cc2cccc(-c3ncccn3)c2)n1 (racemic) |  |
|  | > 4.1 | O=C(C1CCCCC1)N1C[C@@H]2COc3ccccc3[C@@H]2N1Cc1cccc(-c2ncon2)c1 |  |
| 7.8 nm/s | 2.8 | Cn1ccc(C(=O)N2C[C@@H]3COc4cc(F)ccc4[C@@H]3N2Cc2cccc(-c3ncccn3)c2)n1 (racemic) |  |
| 170 nm/s | 3.8 | COc1cc(CN2[C@H]3c4ccccc4OC[C@H]3CN2C(=O)C2CCCCC2)cc(OC)c1 |  |
